PubChem BioAssay (NCI)
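Compound exposure: 48 hours, 5 concentrations, 96-well plates. Definition used: TGI = concentration required for complete inhibition of growth.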

Columns and labels:
Experiment in all cases: NCI anticancer screen, dose series, 48 h
A549 NSCLC = system: A549 NSCLC
ACHN renal = system: ACHN renal
BT-549 breast = system: BT-549 breast
CCRF-CEM leukemia = system: CCRF-CEM leukemia
HCC-2998 colon = system: HCC-2998 colon
HT29 colon = system: HT29 colon
M14 melanoma = system: M14 melanoma
MDA-MB-435 = system: MDA-MB-435
NCI-H460 lung = system: NCI-H460 lung
OVCAR-3 ovarian = system: OVCAR-3 ovarian
OVCAR-5 ovarian = system: OVCAR-5 ovarian
PC-3 prostate = system: PC-3 prostate
SF-295 CNS = system: SF-295 CNS
SK-MEL-2 melanoma = system: SK-MEL-2 melanoma
SN12C renal = system: SN12C renal
SNB-75 CNS = system: SNB-75 CNS
SR leukemia = system: SR leukemia
TK-10 renal = system: TK-10 renal
NCI-H226 lung = system: NCI-H226 lung
SK-OV-3 ovarian = system: SK-OV-3 ovarian

Structure (SMILES)	TGI (A549 NSCLC) [µM]	TGI (ACHN renal) [µM]	TGI (BT-549 breast) [µM]	TGI (CCRF-CEM leukemia) [µM]	TGI (HCC-2998 colon) [µM]	TGI (HT29 colon) [µM]	TGI (M14 melanoma) [µM]	TGI (MDA-MB-435) [µM]	TGI (NCI-H460 lung) [µM]	TGI (OVCAR-3 ovarian) [µM]	TGI (OVCAR-5 ovarian) [µM]	TGI (PC-3 prostate) [µM]	TGI (SF-295 CNS) [µM]	TGI (SK-MEL-2 melanoma) [µM]	TGI (SN12C renal) [µM]	TGI (SNB-75 CNS) [µM]	TGI (SR leukemia) [µM]	TGI (TK-10 renal) [µM]	TGI (NCI-H226 lung) [µM]	TGI (SK-OV-3 ovarian) [µM]
COc1cc(OC)cc(OCc2ccc3nc(-c4ccccc4)c(Cl)nc3c2)c1	> 100	> 100	65.3	> 100	> 100	> 100	> 100	> 100	> 100	> 100	> 100	> 100	67.8	> 100	> 100	37.4	48	55.6		
N#CC1Cc2cc3c(cc21)OCO3 (configuration not stated)	> 100	> 100	> 100	> 100	> 100	> 100	> 100	> 100	> 100	> 100	> 100	> 100	> 100	> 100	> 100	> 100	> 100	> 100	> 100	
COC(=O)[C@H](Cc1ccccc1)NC(=O)N1CCCN(C(=O)N[C@@H](Cc2ccccc2)C(=O)OC)CCCN(C(=O)N[C@@H](Cc2ccccc2)C(=O)OC)CCC1	76.4	31.3	57.1	92.8	38.6	33.5	32.4	54.7	81.5	32.4	33	31.1	37.6	29.5	39.1	30.6		65.4	31.5	73.9
O=[N+]([O-])c1ccc(-c2nc3ccc([N+](=O)[O-])cc3[nH]2)cc1	62.7	> 100	85.7		> 100	> 100	> 100	89.5	65.1	> 100		70.7	66.1	59.6	> 100	> 100	> 100	> 100	> 100	> 100
CCOC(O)(NC(=O)C(C(F)(F)F)C(F)(F)F)C(F)(F)F (configuration not stated)	> 100	> 100	> 100	> 100	> 100	> 100	> 100	> 100			> 100	> 100		> 100	> 100	> 100	> 100	> 100		
COc1cc2c(c(O)c1OC)C(O)C1CCC(=O)N1C2c1cccc2ccccc12 (configuration not stated)	> 100	> 100	> 100	> 100		> 100	> 100	> 100	> 100	> 100	> 100	> 100	> 100	> 100	> 100	> 100	> 100		> 100	> 100
Cc1ncc([N+](=O)[O-])n1CCN(C)C(=O)CCCn1ccnc1[N+](=O)[O-]	> 100	> 100	> 100	> 100		> 100	> 100	> 100	> 100	> 100	> 100	> 100	> 100	> 100	> 100	> 100	> 100	> 100	> 100	> 100
O=S(=O)(O)CCCC1S(=O)(=O)OCCOS1(=O)=O		> 100	> 100		> 100	> 100	> 100	> 100	> 100	> 100	> 100	> 100	> 100			> 100	> 100	> 100	> 100	> 100
CCCN1CC=C(c2cc(C(=O)OCC)[nH]c2-c2cc(C)no2)C1=O	> 100		> 100	> 100	> 100	> 100	> 100	> 100	> 100	> 100	> 100	> 100	> 100	> 100	> 100	> 100	> 100		> 100	> 100
O=c1[nH]c2ccc(Cl)cc2c2oc(-c3ccccc3)nc12	54.3	51.3	> 100	> 100	79	> 100	> 100	> 100	36.9	46.6	> 100	> 100	46.6	57.5	41.8		62.3	80.7	42.3	44.1
O=S(=O)(N/N=C1\CC2CCC1C2)c1ccccc1 (configuration not stated)	> 100	> 100	> 100	> 100		> 100	> 100	> 100	> 100	> 100	> 100	> 100	> 100	> 100	> 100	> 100	> 100	> 100	> 100	> 100
C/C(=C\c1ccccc1)C(=O)NCc1ccc(C(=O)NCCC(C)C)cc1	> 100	> 100	> 100	> 100	> 100	> 100	> 100	> 100	> 100	> 100	> 100	> 100	> 100	> 100	> 100	89.4		> 100	> 100	94.6
Cc1c(C#N)c2ccccc2c2nc3ccccc3n12	> 100	> 100	> 100	> 100	> 100			> 100	> 100	> 100	> 100	> 100	> 100	> 100	> 100	> 100		> 100	> 100	> 100
COC(=O)c1cc2c3c(cc(N(C)C)c2[nH]1)N(C(=O)c1cc2cc(OC)c(OC)c(OC)c2[nH]1)CC3CCl (configuration not stated)			0.193	0.0538	0.0144	> 25	0.00848	< 0.0025	0.323	0.0136	0.25	25	0.226	0.0659	0.384	0.00422			0.0223	0.101
C=[N+](CNC(=O)CNC(=O)C(Cc1ccc([N+](=O)[O-])cc1)NC(=O)OC(C)(C)C)C(=O)CNC(=O)C(Cc1ccc([N+](=O)[O-])cc1)NC(=O)OC(C)(C)C (configuration not stated)	> 100	> 100	85.5		> 100	> 100	> 100	62.7	> 100	> 100	> 100	> 100	> 100		> 100	> 100	80.6	> 100	> 100	> 100
O=C1NC(=O)C(CC(C(=O)C(=O)Nc2ccccc2Cl)C(=O)c2ccc3ccccc3c2)C(=O)N1 (configuration not stated)	> 100	> 100	> 100	> 100	> 100	> 100	> 100	> 100	> 100	> 100	> 100	> 100	> 100	> 100	> 100	> 100		> 100	> 100	> 100
CN(C)Cc1cc(N=Nc2cccc(Cl)c2)ccc1O	32.2	13.5	34	36.3	27.9	33.7	25.5	15.8	26.4	28.9	30.1	38.1	27.8		95.3	39.1	54.5	23.2	50.7	37.9
COC(=O)C(C)(C)OCc1ccc(C2NC(=O)N(c3cccc(Cl)c3)C(=O)N2c2cccc(Cl)c2)cc1 (configuration not stated)	> 100	> 100	> 100	> 100	> 100	> 100	> 100	> 100	> 100	> 100	> 100	> 100	> 100	> 100	> 100	6.95	96.6			> 100
Cc1n[nH]c(=O)n1C1CCCC1	> 100	> 100	> 100	> 100	> 100	> 100	> 100	> 100	> 100	> 100	> 100	> 100	> 100		> 100	> 100	> 100	> 100	> 100	
O=C1CCCC2C(O)CCC[C@H]12 (some centres not stated)	> 100	> 100	> 100	> 100	> 100	> 100	> 100		> 100		> 100	> 100	> 100	> 100	> 100	> 100	> 100	> 100	> 100	> 100
Cc1ccc(Cc2n[nH]c(=O)n2/N=C\CC/C=N\n2c(Cc3ccc(C)cc3)n[nH]c2=O)cc1	> 100	> 100	> 100	> 100	> 100	> 100	> 100	> 100		> 100	> 100	> 100	> 100	80.5	> 100	34.7		> 100	65.3	> 100
Cc1ccc(Cc2n[nH]c(=O)n2-c2ccccc2)cc1	> 100	> 100	> 100		> 100	> 100		> 100	> 100		> 100	> 100	> 100	> 100	> 100	> 100	> 100	> 100	> 100	
O=c1[nH]cnc2c1sc1nc3ccccc3n12	> 100	> 100	> 100	> 100	> 100	> 100	> 100	> 100		> 100	> 100	> 100	> 100	> 100		> 100		> 100	> 100	> 100
C1=Nc2ccc(cc2)N=Cc2ccc(cc2)OCc2cccc(n2)COc2ccc1cc2	> 100	> 100	> 100	> 100		> 100	> 100	> 100	> 100	> 100	> 100	> 100	> 100	> 100	> 100	> 100	> 100		> 100	> 100
COc1ccc(/C=C2\C(=O)N(C)C(=O)c3cc(OC)c(OC)cc32)cc1OC	> 100	> 100	55.6	69.7	> 100	34.2	> 100	> 100	> 100	> 100	> 100	> 100	78.7	> 100	> 100		55.5	> 100	34.7	
